This is an account of results in patent US7981892B2, “Disubstituted phthalazine hedgehog pathway antagonists” (Eli Lilly and Company, priority 2008, dated 2011).

SMILES strings stand for the structures. Counter-ions that a name gives are not always drawn.

The test system of this experiment is Gli1 transcript in Daoy cells stimulated with Shh conditioned media. The experiment in a line: Functional assay for measuring the inhibition of Gli1 in Daoy cells (bDNA assay of Gli1 transcript after Shh-conditioned media stimulation). It counts as cell-based. Conditions: Homo sapiens; Daoy cells treated with Shh-CM, 24 hours incubation with compound, Gli1 transcript by bDNA luminescence. The procedure:
Biological activity is determined using a functional assay in Daoy neuronal cancer cells and measures levels of Gli1 ribonucleic, acid via a bDNA. (branched deoxyribonucleic acid) assay system (Panomies, Inc., Fremont, Calif.), Gli was originally discovered in a Glioblastoma cell line and encodes a zinc finger protein that is activated by Shh signaling. The maximum response is obtained by inducing Gli1 transcription in the Daoy cells with conditioned medium (HEK-293 cells stably expressing recombinant Shb) for 24 hours and. then measuring the amount of stimulated Gli1 transcript. […]
The bDNA assay system utilizes the technology of branched-chain DNA to allow amplification of a target ribonucleic acid (transcript). […] The addition of a chemilumigenic substrate during the amplification step allows for detection using luminescence, […]
Daoy cells are grown to conflunency in tissue culture T225-flasks in Daoy growth media containing Minimum Essential Medium (MEM) plus 10% Fetal Bovine Serum (FBS) with […] non-essential amino acids and 1 mM sodium pyruvate. The cells are removed from the T225-flasks using trypsin ethylenediaminetetraacetic acid (EDTA), centrifuged, resuspended in media, and then counted. […]

Consider `CN(C(=O)c1c(F)cccc1C(F)(F)F)C1CCN(c2nnc(-c3ccccc3)c3ccccc23)CC1` [Example 36, 2-Fluoro-N-methyl-N-(1-(4-phenylphthalazin-1-yl)piperidin-4-yl)-6-(trifluoromethyl)benzamide hydrochloride], for which the half-maximal inhibitory concentration (IC50) (commonly the concentration at which inhibition is half-maximal) was around 2.37 nM.
